One molecule from US10273235B2, “Compositions and methods for inhibiting β-lactamase” (LegoChem Biosciences, Inc., priority 2015, dated 2019) can be followed below.

Series [1] deals with T1, OXA-48 β-lactamase (class D) (Klebsiella pneumoniae, UniProt Q6XEC0).
T1 construct: MICs of bacterial strains used for extraction of enzymes; endogenous in cells; host or cells: bacterial strain carrying OXA-48 (E. coli according to the earlier reading)
The series can be described thus: Inhibitory activity against β-lactamases (nitrocefin), OXA-48. The class given is biochemical. Conditions: 100 μM nitrocefin, 30° C., pH 6.8. On the procedure:
(§1) More diluted stocks were prepared as necessary. Enzyme activity was determined by monitoring the change of absorbance at 492 nm using the characteristic molecular extinction coefficient (Δε492=17,400 M^−1 cm^−1) of nitrocefin by a Shimazu UV-1650PC spectrophotometer. The nitrocefin was purchased from OXOID. Kinetic measurements were run at 30° C. in 10 mM MES[2-(N-morpholino)ethanesulfonic acid]buffer (pH 6.8) or 10 mM MES[2-(N-morpholino)ethanesulfonic acid] buffer (pH 6.8), […] BSA and 50 mM sodium bicarbonate. Reactions were performed in 2.5 mL cuvettes with 100 μM nitrocefin and initiated by adding 1.5 nM to 2.5 nM enzyme. The first 180 s of each reaction was used to measure initial rates. Data were evaluated using Microsoft Excel. Concentration dependent inhibition of enzyme was measured using different concentrations of inhibitors resulting from two-fold dilution series. Reaction progress at every concentration of inhibitor was measured in triplicates. IC50 values were calculated using 4-parameter log fits using XL Fit curve fitting software (www.idbs.com) for Excel using the following equation:
(§2) [formula] where y is the remaining enzyme activity (in %) and x is the corresponding concentration. he fitted IC50 parameter is the relative IC50, and is defined as the concentration giving a response half way between the fitted top (B) and bottom (A) of the curve.

The test system of series [2] is K. pneumoniae CL5761. As to the kind of experiment: MIC of strain used for extraction of enzymes, K. pneumoniae CL5761 (KPC-3, TEM-216, SHV-5). The class given is cell-based. Conditions: BLI: 4 ug/mL. How it is done: MIC90 (μg/mL) is the lowest concentration of an antibiotic that will inhibit the visible growth of 90% of microorganisms after incubation as compared with a control group to which the antibiotic is not treated.
MIC values were measured by the broth microdilution method developed by the Clinical and Laboratory Standards Institute (CLSI) (see CLSI M07-A9, Methods for Dilution Antimicrobial Susceptibility Test for Bacteria that Grow Aerobically; Approved Standard-Ninth Edition (2012): CLSI, Villanova, Pa.). The in vitro antibacterial activity was measured with respect to the following 9 clinical isolates: P. aeruginosa (3 strains); K. pneumoniae (6 strains). The in vitro antibacterial activity of selected compounds was measured with respect to the following 15 clinical isolates: K. pneumoniae (15 strains).

Series [3] deals with E. coli K0519020. As to the kind of experiment: MIC of strain used for extraction of enzymes, E. coli K0519020 (CTX-M-15, TEM-1, OXA-1, AmpC (NC_000913)). The class given is cell-based.
Series [4] addresses T2, CMY-10 β-lactamase (class C) (Klebsiella aerogenes, UniProt Q99QC1).
T2 construct: MICs of bacterial strains used for extraction of enzymes; endogenous in cells
As to the kind of experiment: Inhibitory activity against β-lactamases (nitrocefin), CMY-10. The class given is biochemical. On the procedure: as §1, §2

Series [5] relates to E. coli TOPDXA048. As to the kind of experiment: MIC of strain used for extraction of enzymes, E. coli TOPDXA048 (OXA-48, TEM-116, AmpC (NC_000913)). In kind it is cell-based.
A short description of series [6]: Mouse pharmacokinetics. In kind it is in vivo, ICR mouse. The conditions noted are these: IV, 50 mg/kg, plasma. On the procedure:
The pharmacokinetics values were evaluated in a mouse model. The test compound (50 mg/kg) was injected into the tail vein of 8 week old ICR mouse, weighing approximately 26-30 g. […] Lab conditions were temperature of 22±3° C. and humidity of 50±20%.

Series [7] deals with E. aerogenes K9911729. The series can be described thus: MIC of strain used for extraction of enzymes, E. aerogenes K9911729 (CMY-10, TEM-1, SHV-12, AmpC (DQ478697)). The class given is cell-based.
For series [8], the system named is E. coli ECO200. The series can be described thus: MIC of strain used for extraction of enzymes, E. coli ECO200 (NDM-1, TEM-1, CTX-M-15, EC (AmpC), OXA-2 type). The class given is cell-based.
The target of series [9] is T3, NDM-1 β-lactamase (class B) (Klebsiella pneumoniae, UniProt C7C422).
T3 construct: MICs of bacterial strains used for extraction of enzymes; endogenous in cells; host or cells: bacterial strain carrying NDM-1 (E. coli according to the earlier reading)
The series can be described thus: Inhibitory activity against β-lactamases (nitrocefin), NDM-1. In kind it is biochemical. Conditions: 100 μM nitrocefin, 30° C., pH 6.8. On the procedure:
as §1, §2

Series [10] concerns the target KPC-3 β-lactamase (class A) (Klebsiella pneumoniae, UniProt Q9F663, H272Y). The series can be described thus: Inhibitory activity against β-lactamases (nitrocefin), KPC-3. In kind it is biochemical, K. pneumoniae. On the procedure: as §1, §2

SMILES strings stand for the structures. Where a name gives a salt, the structure may show the parent alone.

T3 sequence (C7C422 29-270, looked up): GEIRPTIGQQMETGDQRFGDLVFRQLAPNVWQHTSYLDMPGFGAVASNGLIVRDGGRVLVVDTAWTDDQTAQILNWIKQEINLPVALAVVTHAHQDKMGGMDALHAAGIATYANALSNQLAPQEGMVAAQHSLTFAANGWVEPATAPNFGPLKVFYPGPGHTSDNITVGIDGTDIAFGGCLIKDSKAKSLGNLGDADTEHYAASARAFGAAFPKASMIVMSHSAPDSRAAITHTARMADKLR
T1 sequence (Q6XEC0 23-265, looked up): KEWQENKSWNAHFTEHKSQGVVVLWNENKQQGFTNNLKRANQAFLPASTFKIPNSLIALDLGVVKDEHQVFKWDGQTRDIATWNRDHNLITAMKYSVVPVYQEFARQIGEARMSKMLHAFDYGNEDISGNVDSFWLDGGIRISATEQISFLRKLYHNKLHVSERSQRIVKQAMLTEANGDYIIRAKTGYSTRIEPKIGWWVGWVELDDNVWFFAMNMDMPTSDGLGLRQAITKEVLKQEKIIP
Chain of KPC-3 β-lactamase (class A) (Q9F663 25-293 H272Y): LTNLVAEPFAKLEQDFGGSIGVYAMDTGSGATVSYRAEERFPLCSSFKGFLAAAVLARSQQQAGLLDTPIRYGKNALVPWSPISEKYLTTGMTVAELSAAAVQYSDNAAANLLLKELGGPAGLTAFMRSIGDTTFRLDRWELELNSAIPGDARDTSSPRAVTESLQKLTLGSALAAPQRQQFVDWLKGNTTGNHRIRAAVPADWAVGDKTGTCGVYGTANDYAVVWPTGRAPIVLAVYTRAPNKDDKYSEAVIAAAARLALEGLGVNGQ
T2 sequence (Q99QC1 24-382): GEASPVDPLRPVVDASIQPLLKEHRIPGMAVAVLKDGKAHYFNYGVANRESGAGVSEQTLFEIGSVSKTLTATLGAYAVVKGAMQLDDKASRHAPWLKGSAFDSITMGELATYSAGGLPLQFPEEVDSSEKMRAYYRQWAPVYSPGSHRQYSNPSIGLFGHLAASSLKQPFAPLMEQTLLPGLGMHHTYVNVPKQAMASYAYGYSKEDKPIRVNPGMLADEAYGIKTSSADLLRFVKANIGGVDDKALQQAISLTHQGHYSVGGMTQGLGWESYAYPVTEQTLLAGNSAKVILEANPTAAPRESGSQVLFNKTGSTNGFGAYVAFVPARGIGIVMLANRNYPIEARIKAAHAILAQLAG

What is called IC50 is the point on the concentration scale where inhibition reaches its midpoint. As a reminder, the MIC is the lowest concentration found to suppress growth. What is called AUC(0-inf) is total exposure, with the tail of the curve extrapolated. Higher therefore signals more exposure. What is called Cmax is the highest concentration seen after dosing. Usually Tmax stands for the time from dosing to the highest level. By clearance is commonly meant a measure of how efficiently the substance is removed, as volume per time. Lower therefore signals a low capacity for elimination. One may read the half-life as how long it takes for the measured level to halve. A higher half-life goes with slow decline. As for `O=C1N2C[C@@H](CC[C@H]2C2=NO[C@]3(CCNC3)C2)N1OS(=O)(=O)O` [Example 17, [(2S,5R)-2-[(5R)-1-oxa-2,7-diazaspiro[4.4]non-2-en-3-yl]-7-oxo-1,6-diazabicyclo[3.2.1]octan-6-yl] hydrogen sulfate], the IC50 in series [1] stood at 29.5 µM; in [4], 185 nM; in series [9], 1.19 mM; in series [10] it was 2740 nM. Moreover, the “MIC of Meropenem with BLI” value in series [2] is 0.5 µg/mL; in [3] (BLI: 4 ug/mL), 0.0625 µg/mL; in series [5] (BLI: 4 ug/mL) it was under 0.0312 µg/mL; in series [7] (BLI: 4 ug/mL), under 0.0312 µg/mL; in [8] (BLI: 4 ug/mL), under 0.0312 µg/mL. Besides, the minimal inhibitory concentration (MIC) in series [2] (Klebsiella pneumoniae, CL5761, read-out: MIC of LCB10-0200 with BLI) is 0.125 µg/mL; in series [3] (Escherichia coli, K0519020, read-out: MIC of LCB10-0200 with BLI), under 0.0312 µg/mL; in series [5] (Escherichia coli, TOPDXA048, read-out: MIC of LCB10-0200 with BLI), under 0.0312 µg/mL; in series [7] (Klebsiella aerogenes, K9911729, read-out: MIC of LCB10-0200 with BLI), under 0.0312 µg/mL; in [8] (Escherichia coli, ECO200, read-out: MIC of LCB10-0200 with BLI), under 0.0312 µg/mL. This molecule yielded a total exposure AUC(0-inf) in series [6] (ICR) of 31000 ± 500 ng·h/mL. Also, the Cmax in series [6] (ICR) stood at 64.2 ± 3.88 µg/mL. In addition, in [6] (ICR), the time to peak (Tmax) was 4.8 min. This molecule showed a clearance in [6] (ICR) of 27 mL/min/kg. This molecule had a half-life in series [6] (ICR) of 75 ± 9 min. Besides, the Vd in series [6] (ICR, read-out: Vss) is 1.81 ± 0.14 L/kg. In addition, the AUCnorm in series [6] worked out at 0.62 ± 0.01 kg·h/L. Further, in series [6], the “Cmax, norm” value is 1.28 ± 0.08 kg/L.
